Columns and labels:
ADJ/PC6 tumor = experiment: antitumor activity using ADJ/PC6 tumor in mice; assay type: in vivo; details: for P.O. ED90 / P.O. TI: oral (P.O.); for P.O. TI / I.P. TI: TI from LD50 and ED90; for I.P. ED90 / I.P. TI: parenteral (I.P.)
Experimental: (§1) Complexes according to the invention were tested for antitumor activity using ADJ/PC6 tumor in mice. The complexes were administered parenterally (I.P.) or orally (P.O.).

mice = experiment: lethality (LD50) in mice, ADJ/PC6 antitumor test; assay type: in vivo; details: for P.O. LD50: oral (P.O.); for I.P. LD50: parenteral (I.P.)
Experimental: as §1

[1] = common organic solvents, e.g., acetone, methylene chloride; cited from earlier work

Compound | P.O. ED90 (ADJ/PC6 tumor) [mg/kg] | P.O. TI (ADJ/PC6 tumor) | I.P. ED90 (ADJ/PC6 tumor) [mg/kg] | I.P. TI (ADJ/PC6 tumor) | P.O. LD50 (mice) [mg/kg] | I.P. LD50 (mice) [mg/kg] | solubility in water / organic solvents (in words), prior-art complexes [1]
c-t-c-PtCl2 (O2 CCH2 CH3)2 (NH3)(n-C3 H7 NH2) [Compound 9 (Table 2)] | 8.6 | 13.7 | 5.6 | 7.4 | 118 | 41.5 | 
N.N.O=C([O-])C1(C(=O)[O-])CCC1.[Pt+2] [carboplatin] |  |  |  |  |  |  | dissolve more readily in water than they do in common organic solvents
c-t-c-PtCl2 (O2 CCH3)2 (NH3)(n-C3 H7 NH2) [Compound 8 (Table 2)] | 18 | 13.1 | 3.1 | 11.3 | 235 | 35 | 
